Data as given in US20240254132A1, “COMPOUNDS, COMPOSITIONS AND METHODS” (Denali Therapeutics Inc., priority 2021, published 2024).

Test system: IL-1β secretion, THP-1 cells
Assay: IL-1β secretion assay in PMA-differentiated THP-1 cells (LPS + nigericin stimulation, IL-1β ELISA)
Assay type: cell-based
Conditions: LPS 25 ng/mL, IL-1β by ELISA
Protocol: Compounds as provided herein were tested in the following assay. Cell culture medium employed contained RPMI 1640 medium (89%), FBS (10%), Pen/Strep (1%), and 2-mercaptoethanol (0.05 mm). Freezing medium was made up of 90% FBS and 10% DMSO. THP-1 cells were removed from the liquid nitrogen and placed into a 37° C. water bath to thaw, until signs of ice dissipated. The cells were then added to 9 mL of warm cell culture medium and centrifuged for 5 minutes at 1000 rpm. The supernatant was discarded, and the cells were resuspended in new cell culture medium. THP-1 cells were then split and cultured in the cell culture medium, being passaged every 2-3 days with the cell density will be maintained between 5×10^5 and 1.5×10^6 viable cells/mL.
Procedure for […], Secretion Assay in 384-Well Plates
PMA was dissolved in DMSO to make a stock solution at 5 mg/mL and stored in 10 μl aliquots at −20° C. for single use. PMA is added to normal growth medium. LPS was diluted with 1 mL of water solution to provide a 1 mg/mL stock solution and stored in 15 μl aliquots at −20° C. for single use. Nigericin is diluted in ice cold 100% ethanol to 5 mg/mL (6.7 mM) and stored in 75 μL aliquots at −20° C. for single use. Serum-free media contains RPMI 1640 medium (99%), Pen/Strep (1%), and 2-mercaptoethanol (0.05 mM). The two control conditions used to qualify and normalize test compound dose-response curves were as follows: High Control=25 ng/mL LPS, 5 μM Nigericin, 0.5% DMSO, Low Control=25 ng/mL, LPS, 0.5% DMSO.
THP-1 cells were diluted to provide a suspension at a concentration of 1.0×10^6 cells/mL with the total volume of suspension required to enable the desired number of assay plates. The growth media was supplemented with PMA (5 ng/mL final concentration) and the cells were incubated at 37° C. under a humidified atmosphere of 5% CO2 for 40 h.
All media was carefully aspirated from each culture flask. The cells were washed carefully with 1×DPBS. The cells were then briefly digested with trypsin LE for 5 minutes at 23° C. and immediately resuspended in cell growth media. After resuspension, the cells were centrifuged at 1000 rpm for 3 minutes and the supernatant was discarded. The cells were resuspended in DPBS and once again centrifuged at 1000 rpm for 5 minutes. The supernatant was discarded and the cell pellet was resuspended in serum-free media supplemented with LPS (25 ng/mL final concentration) to enable the distribution of 30K THP-1 cells within 45 μL of media into each well of 384-well PDL-coated plates. The 384-well plates were then incubated at 37° C. under a humidified atmosphere of 5% CO2 for 2 h. Following this period, test compounds were dispensed by Tecan across the desired concentration range with all wells normalized to a final 0.5% DMSO concentration. The plates were then incubated at 37° C. under a humidified atmosphere of 5% CO2 for 1 h. Following this period, 5 μL of the 5 mg/mL nigericin stock solution was added to each of the appropriate wells and plates were centrifuged at 1000 rpm for 30 seconds. The plates were the immediately reintroduced to the incubator at 37° C. under a humidified atmosphere of 5% CO2 for 2 h. After this time, 35 μL/well of supernatant was collected and transferred into v-bottom plate and centrifuged at 1000 rpm for 1 minute. These supernatant aliquots were analyzed using an IL-Iβ detection kit as described below. If needed, the test samples could be snap frozen and stored at −80° C. until analyzed.
To prepare each ELISA plate, capture antibody (mAb Mt175) was diluted with PBS to a final concentration of 2 μg/mL and then 20 μL of this solution was added to each well of the ELISA plate. Each plate was allowed to incubate overnight at 4° C. The next day, the capture antibody solution was removed and discarded. Each ELISA plate was washed 4 times with PBST followed by the addition of 25 μL/well of blocking buffer (Licor-927-40010) supplemented with 0.1% Tween 20. […]

[1] = Homo sapiens, THP-1, class symbol
[2] = Homo sapiens, THP-1, numeric value

**Q.** How did the IC50 [1] turn out when `C[C@H]1C[C@@]12C(=O)N(CC(=O)Nc1ncc(F)cn1)C(=O)c1ccc(Br)cc12` (single isomer, unassigned) [Example 13, N-(5-fluoropyrimidin-2-yl)-2-[(1r,2s)-6′-bromo-2-methyl-1′,3′-dioxospiro[cyclopropane-1,4′-isoquinoline]-2′-yl]acetamide] was run?
**A.** < 10 µM

**Q.** What about the IC50 (numeric value) of the same compound?
**A.** 0.286 µM

**Q.** For `C[C@H]1C[C@@]12C(=O)N(CC(=O)Nc1ncc(F)cn1)C(=O)c1ccc(Br)cc12` (single isomer, unassigned) [Example 14, N-(5-fluoropyrimidin-2-yl)-2-[(1r,2s)-6′-bromo-2-methyl-1′,3′-dioxospiro[cyclopropane-1,4′-isoquinoline]-2′-yl]acetamide], which IC50 (class symbol) is on record?
**A.** < 10 µM

**Q.** What about the IC50 (numeric value) of the same compound?
**A.** 6.66 µM

**Q.** For `CC1(C)C(=O)N(CC(=O)Nc2ncc(F)cn2)C(=O)c2ccc(Br)cc21` [Example 7], which IC50 [1] is on record?
**A.** < 10 µM

**Q.** What about the IC50 [2] of the same compound?
**A.** 0.269 µM

**Q.** `O=C(CN1C(=O)c2ccc(Br)cc2C2(CCC2)C1=O)Nc1ncc(F)cn1` [Example 8, 2-(6′-bromo-1′,3′-dioxospiro[cyclobutane-1,4′-isoquinoline]-2′-yl)-N-(5-fluoropyrimidin-2-yl)acetamide] was tested. Which IC50 [1] did it give?
**A.** < 10 µM

**Q.** And the IC50 [2]?
**A.** 0.388 µM

**Q.** Which IC50 [1] does the source give for `O=C(CN1C(=O)c2ccc(Br)cc2C2(CC2)C1=O)N[C@@H]1CCCN(C2CCC2)C1` [Example 9, 2-(6′-bromo-1′,3′-dioxospiro[cyclopropane-1,4′-isoquinoline]-2′-yl)-N-[(3R)-1-cyclobutylpiperidin-3-yl]acetamide] here?
**A.** < 10 µM

**Q.** What about the IC50 [2] of the same compound?
**A.** 0.307 µM

**Q.** `O=C(CN1C(=O)c2ccc(Br)cc2C2(CC(F)(F)C2)C1=O)Nc1ncc(F)cn1` [Example 10, 2-(6′-bromo-1,1-difluoro-1′,3′-dioxospiro[cyclobutane-3,4′-isoquinoline]-2′-yl)-N-(5-fluoropyrimidin-2-yl)acetamide] was tested. Which IC50 [1] did it give?
**A.** 10 to 15 µM

**Q.** What about the IC50 [2] of the same compound?
**A.** 13.1 µM

**Q.** For `O=C(CN1C(=O)c2ccc(C3CC3)c(F)c2C2(CC2)C1=O)Nc1ncc(F)cn1` [Example 11, 2-(6′-cyclopropyl-5′-fluoro-1′,3′-dioxospiro[cyclopropane-1,4′-isoquinoline]-2′-yl)-N-(5-fluoropyrimidin-2-yl)acetamide], which IC50 [1] is on record?
**A.** < 10 µM

**Q.** What about the IC50 [2] of the same compound?
**A.** 0.332 µM

**Q.** For `O=C(CN1C(=O)c2ccc(Br)cc2C2(CCCC2)C1=O)Nc1ncc(F)cn1` [Example 12, 2-(6′-bromo-1′,3′-dioxospiro[cyclopentane-1,4′-isoquinoline]-2′-yl)-N-(5-fluoropyrimidin-2-yl)acetamide], which IC50 [1] is on record?
**A.** < 10 µM

**Q.** What about the IC50 [2] of the same compound?
**A.** 1.36 µM

**Q.** Which IC50 [1] does the source give for `O=C(CN1C(=O)c2ccc(C(F)(F)F)cc2C2(CC2)C1=O)Nc1ncc(F)cn1` [Example 15, 2-[1′,3′-dioxo-6′-(trifluoromethyl)spiro[cyclopropane-1,4′-isoquinoline]-2′-yl]-N-(5-fluoropyrimidin-2-yl)acetamide] here?
**A.** < 10 µM

**Q.** And the IC50 [2]?
**A.** 0.893 µM

**Q.** Which IC50 [1] does the source give for `O=C(CN1C(=O)c2ccc(C(F)(F)F)c(F)c2C2(CC2)C1=O)Nc1ncc(F)cn1` [Example 16, 2-[5′-fluoro-1′,3′-dioxo-6′-(trifluoromethyl)spiro[cyclopropane-1,4′-isoquinoline]-2′-yl]-N-(5-fluoropyrimidin-2-yl)acetamide] here?
**A.** < 10 µM

**Q.** And the IC50 [2]?
**A.** 0.918 µM

**Q.** Which results are given for `CC1(C(F)(F)F)C(=O)N(CC(=O)Nc2ncc(F)cn2)C(=O)c2ccc(Br)cc21` (stereo not shown) [Example 17, 2-[6-bromo-4-methyl-1,3-dioxo-4-(trifluoromethyl)isoquinolin-2-yl]-N-(5-fluoropyrimidin-2-yl)acetamide]?
**A.** IC50 [1]: < 10 µM; IC50 [2]: 2.4 µM

**Q.** `N#Cc1cnc(NC(=O)CN2C(=O)c3ccc(Br)c(F)c3C3(CC3)C2=O)c(F)c1` [Example 18, 2-(6′-bromo-5′-fluoro-1′,3′-dioxospiro[cyclopropane-1,4′-isoquinoline]-2′-yl)-N-(5-cyano-3-fluoropyridin-2-yl)acetamide] was tested. Which IC50 [1] did it give?
**A.** < 10 µM

**Q.** And the IC50 [2]?
**A.** 0.331 µM

**Q.** Which results are given for `O=C(CN1C(=O)c2ccc(Br)cc2C2(COC2)C1=O)Nc1ncc(F)cn1` [Example 19, 2-(6-bromo-1,3-dioxospiro[isoquinoline-4,3′-oxetane]-2-yl)-N-(5-fluoropyrimidin-2-yl)acetamide]?
**A.** IC50 [1]: < 10 µM; IC50 [2]: 4.46 µM

**Q.** How did the IC50 [1] turn out when `Cc1cnc(NC(=O)CN2C(=O)c3ccc(Br)c(F)c3C3(CC3)C2=O)nc1` [Example 20, 2-(6′-bromo-5′-fluoro-1′,3′-dioxospiro[cyclopropane-1,4′-isoquinoline]-2′-yl)-N-(5-methylpyrimidin-2-yl)acetamide] was run?
**A.** < 10 µM

**Q.** And the IC50 [2]?
**A.** 0.261 µM

**Q.** What does the source list for `CC(C(=O)Nc1ncc(F)cn1)N1C(=O)c2ccc(Br)c(F)c2C2(CC2)C1=O` (stereo not shown) [Example 21, 2-(6′-bromo-5′-fluoro-1′,3′-dioxospiro[cyclopropane-1,4′-isoquinoline]-2′-yl)-N-(5-fluoropyrimidin-2-yl)propanamide]?
**A.** IC50 [1]: < 10 µM; IC50 [2]: 0.936 µM

**Q.** Which IC50 [1] does the source give for `O=C1c2ccc(Br)cc2C2(CC2)C(=O)N1C1(C(=O)Nc2ncc(F)cn2)CC1` [Example 22, 1-(6′-bromo-1′,3′-dioxospiro[cyclopropane-1,4′-isoquinoline]-2′-yl)-N-(5-fluoropyrimidin-2-yl)cyclopropane-1-carboxamide] here?
**A.** < 10 µM

**Q.** What about the IC50 [2] of the same compound?
**A.** 8.08 µM

**Q.** `CCC(C(=O)Nc1ncc(F)cn1)N1C(=O)c2ccc(Br)cc2C2(CC2)C1=O` (stereo not shown) [Example 23, 2-(6′-bromo-1′,3′-dioxospiro[cyclopropane-1,4′-isoquinoline]-2′-yl)-N-(5-fluoropyrimidin-2-yl)butanamide] was tested. Which IC50 [1] did it give?
**A.** < 10 µM

**Q.** What about the IC50 [2] of the same compound?
**A.** 2.17 µM

**Q.** What does the source list for `O=C(CN1C(=O)c2ccc(Br)c(F)c2C2(CC2)C1=O)Nc1ncc2cn[nH]c2n1` [Example 24, 2-(6′-bromo-5′-fluoro-1′,3′-dioxospiro[cyclopropane-1,4′-isoquinoline]-2′-yl)-N-(1H-pyrazolo[3,4-d]pyrimidin-6-yl)acetamide]?
**A.** IC50 [1]: < 10 µM; IC50 [2]: 0.088 µM

**Q.** Which results are given for `CC1CC12C(=O)N(CC(=O)Nc1ncc(F)cn1)C(=O)c1ccc(Br)cc12` (stereo not shown) [Example 25, 2-(6′-bromo-2-methyl-1′,3′-dioxospiro[cyclopropane-1,4′-isoquinoline]-2′-yl)-N-(5-fluoropyrimidin-2-yl)acetamide]?
**A.** IC50 [1]: < 10 µM; IC50 [2]: 0.391 µM

**Q.** For `N#Cc1cnc(NC(=O)CN2C(=O)c3ccc(Br)c(F)c3C3(CC3)C2=O)nc1` [Example 26, 2-(6′-bromo-5′-fluoro-1′,3′-dioxospiro[cyclopropane-1,4′-isoquinoline]-2′-yl)-N-(5-cyanopyrimidin-2-yl)acetamide], which IC50 [1] is on record?
**A.** < 10 µM

**Q.** What about the IC50 [2] of the same compound?
**A.** 0.09 µM

**Q.** With `O=C(CN1C(=O)c2ccc(Br)c(F)c2C2(CC2)C1=O)Nc1ncc(F)cn1` [Example 29, 2-(6′-bromo-5′-fluoro-1′,3′-dioxospiro[cyclopropane-1,4′-isoquinoline]-2′-yl)-N-(5-fluoropyrimidin-2-yl)acetamide] as the compound, how does the IC50 [1] read?
**A.** < 10 µM

**Q.** What about the IC50 [2] of the same compound?
**A.** 0.099 µM

**Q.** What does the source list for `N#Cc1cnc(NC(=O)CN2C(=O)c3ccc(Br)cc3C3(CC3)C2=O)nc1` [Example 31, 2-(6′-bromo-1′,3′-dioxospiro[cyclopropane-1,4′-isoquinoline]-2′-yl)-N-(5-cyanopyrimidin-2-yl)acetamide]?
**A.** IC50 [1]: < 10 µM; IC50 [2]: 0.208 µM

**Q.** For `O=C(CN1C(=O)c2ccc(Br)cc2C2(CC2)C1=O)Nc1ncc(Cl)cn1` [Example 32, 2-(6′-bromo-1′,3′-dioxospiro[cyclopropane-1,4′-isoquinoline]-2′-yl)-N-(5-chloropyrimidin-2-yl)acetamide], which IC50 [1] is on record?
**A.** < 10 µM

**Q.** What about the IC50 [2] of the same compound?
**A.** 0.137 µM
